# Results reported in PubChem BioAssay (NCI).
#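 Exposure lasted 48 hours, with cells grown in 96-well plates and compounds tested at five concentrations. GI50 = concentration required for 50% inhibition of growth. At the TGI there is no net growth.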
# Assays:
# Experiment in all cases: NCI tumour cell line growth inhibition, 48 h
# 786-0 renal = tested on: 786-0 renal
# A498 renal = tested on: A498 renal
# A549 NSCLC = tested on: A549 NSCLC
# ACHN renal = tested on: ACHN renal
# BT-549 breast = tested on: BT-549 breast
# CAKI-1 renal = tested on: CAKI-1 renal
# CCRF-CEM leukemia = tested on: CCRF-CEM leukemia
# COLO 205 colon = tested on: COLO 205 colon
# DU-145 prostate = tested on: DU-145 prostate
# EKVX NSCLC = tested on: EKVX NSCLC
# HCC-2998 colon = tested on: HCC-2998 colon
# HCT-116 colon = tested on: HCT-116 colon
# HCT-15 colon = tested on: HCT-15 colon
# HL-60(TB) leukemia = tested on: HL-60(TB) leukemia
# HOP-62 NSCLC = tested on: HOP-62 NSCLC
# HOP-92 NSCLC = tested on: HOP-92 NSCLC
# HS 578T breast = tested on: HS 578T breast
# HT29 colon = tested on: HT29 colon
# IGROV1 ovarian = tested on: IGROV1 ovarian
# K-562 leukemia = tested on: K-562 leukemia
# KM12 colon = tested on: KM12 colon
# LOX IMVI melanoma = tested on: LOX IMVI melanoma
# M14 melanoma = tested on: M14 melanoma
# MALME-3M melanoma = tested on: MALME-3M melanoma
# MCF7 breast = tested on: MCF7 breast
# MDA-MB-231 breast = tested on: MDA-MB-231 breast
# MDA-MB-435 = tested on: MDA-MB-435
# MOLT-4 leukemia = tested on: MOLT-4 leukemia
# NCI-H226 lung = tested on: NCI-H226 lung
# NCI-H460 lung = tested on: NCI-H460 lung
# NCI-H522 lung = tested on: NCI-H522 lung
# NCI/ADR-RES ovarian = tested on: NCI/ADR-RES ovarian
# OVCAR-3 ovarian = tested on: OVCAR-3 ovarian
# OVCAR-4 ovarian = tested on: OVCAR-4 ovarian
# OVCAR-5 ovarian = tested on: OVCAR-5 ovarian
# OVCAR-8 ovarian = tested on: OVCAR-8 ovarian
# PC-3 prostate = tested on: PC-3 prostate
# RPMI-8226 leukemia = tested on: RPMI-8226 leukemia
# RXF 393 renal = tested on: RXF 393 renal
# SF-268 CNS = tested on: SF-268 CNS
# SF-295 CNS = tested on: SF-295 CNS
# SF-539 CNS = tested on: SF-539 CNS
# SK-MEL-2 melanoma = tested on: SK-MEL-2 melanoma
# SK-MEL-28 melanoma = tested on: SK-MEL-28 melanoma
# SK-MEL-5 melanoma = tested on: SK-MEL-5 melanoma
# SK-OV-3 ovarian = tested on: SK-OV-3 ovarian
# SN12C renal = tested on: SN12C renal
# SNB-19 CNS = tested on: SNB-19 CNS
# SNB-75 CNS = tested on: SNB-75 CNS
# SR leukemia = tested on: SR leukemia
# SW-620 colon = tested on: SW-620 colon
# T-47D breast = tested on: T-47D breast
# TK-10 renal = tested on: TK-10 renal
# U251 CNS = tested on: U251 CNS
# UACC-257 melanoma = tested on: UACC-257 melanoma
# UACC-62 melanoma = tested on: UACC-62 melanoma
# UO-31 renal = tested on: UO-31 renal
compound,measurement,setting,value
C#C[C@]1(O)CC[C@H]2[C@@H]3CC=C4c5sc(-c6ccc(F)cn6)nc5CC[C@]4(C)[C@H]3CC[C@@]21C,GI50,786-0 renal,1360 nM
same,TGI,786-0 renal,3.33 µM
same,GI50,A498 renal,2050 nM
same,TGI,A498 renal,4.06 µM
same,GI50,A549 NSCLC,3.44 µM
same,TGI,A549 NSCLC,15.1 µM
same,GI50,ACHN renal,3.43 µM
same,TGI,ACHN renal,14 µM
same,GI50,BT-549 breast,1770 nM
same,TGI,BT-549 breast,5.02 µM
same,GI50,CAKI-1 renal,2120 nM
same,TGI,CAKI-1 renal,6.27 µM
same,GI50,CCRF-CEM leukemia,2710 nM
same,TGI,CCRF-CEM leukemia,33.5 µM
same,GI50,COLO 205 colon,2620 nM
same,TGI,COLO 205 colon,11.1 µM
same,GI50,DU-145 prostate,4.62 µM
same,TGI,DU-145 prostate,18.9 µM
same,GI50,EKVX NSCLC,2890 nM
same,TGI,EKVX NSCLC,12.9 µM
same,GI50,HCC-2998 colon,5.16 µM
same,TGI,HCC-2998 colon,17.8 µM
same,GI50,HCT-116 colon,1800 nM
same,TGI,HCT-116 colon,4.3 µM
same,GI50,HCT-15 colon,1890 nM
same,TGI,HCT-15 colon,5.11 µM
same,GI50,HL-60(TB) leukemia,2770 nM
same,TGI,HL-60(TB) leukemia,10.9 µM
same,GI50,HOP-62 NSCLC,2280 nM
same,TGI,HOP-62 NSCLC,7.25 µM
same,GI50,HOP-92 NSCLC,2020 nM
same,TGI,HOP-92 NSCLC,6.83 µM
same,GI50,HS 578T breast,1450 nM
same,TGI,HS 578T breast,5.26 µM
same,GI50,HT29 colon,2020 nM
same,TGI,HT29 colon,4.6 µM
same,GI50,IGROV1 ovarian,4.96 µM
same,TGI,IGROV1 ovarian,20.8 µM
same,GI50,K-562 leukemia,2490 nM
same,TGI,K-562 leukemia,> 100 µM
same,GI50,KM12 colon,3.26 µM
same,TGI,KM12 colon,20.8 µM
same,GI50,LOX IMVI melanoma,1820 nM
same,TGI,LOX IMVI melanoma,3.35 µM
same,GI50,M14 melanoma,2770 nM
same,TGI,M14 melanoma,11.7 µM
same,GI50,MALME-3M melanoma,3.29 µM
same,TGI,MALME-3M melanoma,11.7 µM
same,GI50,MCF7 breast,1500 nM
same,TGI,MCF7 breast,3.38 µM
same,GI50,MDA-MB-231 breast,2400 nM
same,TGI,MDA-MB-231 breast,7.14 µM
same,GI50,MDA-MB-435,2280 nM
same,TGI,MDA-MB-435,6.84 µM
same,GI50,MOLT-4 leukemia,2010 nM
same,TGI,MOLT-4 leukemia,8.06 µM
same,GI50,NCI-H226 lung,2930 nM
same,TGI,NCI-H226 lung,13.1 µM
same,GI50,NCI-H460 lung,3.03 µM
same,TGI,NCI-H460 lung,12.5 µM
same,GI50,NCI-H522 lung,2060 nM
same,TGI,NCI-H522 lung,5.78 µM
same,GI50,NCI/ADR-RES ovarian,4.12 µM
same,TGI,NCI/ADR-RES ovarian,23.6 µM
same,GI50,OVCAR-3 ovarian,3.86 µM
same,TGI,OVCAR-3 ovarian,72.4 µM
same,GI50,OVCAR-4 ovarian,4.41 µM
same,TGI,OVCAR-4 ovarian,18.5 µM
same,GI50,OVCAR-5 ovarian,4.01 µM
same,TGI,OVCAR-5 ovarian,14.8 µM
same,GI50,OVCAR-8 ovarian,3.16 µM
same,TGI,OVCAR-8 ovarian,14.3 µM
same,GI50,PC-3 prostate,1730 nM
same,TGI,PC-3 prostate,7.64 µM
same,GI50,RPMI-8226 leukemia,365 nM
same,TGI,RPMI-8226 leukemia,1720 nM
same,GI50,RXF 393 renal,309 nM
same,TGI,RXF 393 renal,956 nM
same,GI50,SF-268 CNS,3.46 µM
same,TGI,SF-268 CNS,18.4 µM
same,GI50,SF-295 CNS,1240 nM
same,TGI,SF-295 CNS,2960 nM
same,GI50,SF-539 CNS,1230 nM
same,TGI,SF-539 CNS,2880 nM
same,GI50,SK-MEL-2 melanoma,2330 nM
same,TGI,SK-MEL-2 melanoma,6.58 µM
same,GI50,SK-MEL-28 melanoma,1640 nM
same,TGI,SK-MEL-28 melanoma,3.88 µM
same,GI50,SK-MEL-5 melanoma,2620 nM
same,TGI,SK-MEL-5 melanoma,7.23 µM
same,GI50,SK-OV-3 ovarian,2290 nM
same,TGI,SK-OV-3 ovarian,5.64 µM
same,GI50,SN12C renal,4.54 µM
same,TGI,SN12C renal,17.5 µM
same,GI50,SNB-19 CNS,2720 nM
same,TGI,SNB-19 CNS,12.7 µM
same,GI50,SNB-75 CNS,2450 nM
same,TGI,SNB-75 CNS,15 µM
same,GI50,SR leukemia,2210 nM
same,TGI,SR leukemia,8.39 µM
same,GI50,SW-620 colon,2620 nM
same,TGI,SW-620 colon,8.01 µM
same,GI50,T-47D breast,3.43 µM
same,TGI,T-47D breast,16.1 µM
same,GI50,TK-10 renal,5.31 µM
same,TGI,TK-10 renal,17.3 µM
same,GI50,U251 CNS,1680 nM
same,TGI,U251 CNS,7.05 µM
same,GI50,UACC-257 melanoma,2250 nM
same,TGI,UACC-257 melanoma,6.73 µM
same,GI50,UACC-62 melanoma,2650 nM
same,TGI,UACC-62 melanoma,8.53 µM
same,GI50,UO-31 renal,2320 nM
same,TGI,UO-31 renal,5.62 µM
